This note sets out measurements from PubChem BioAssay AID1996.

In brackets after ≈: the same amount, converted by molar mass.

The conditions of the data set: buffer; pH 7.4; 200.0 µM.
For the molecule `COc1ccc(NC(=O)Nc2c[nH]c(=O)[nH]c2=O)cc1OC`, the kinetic solubility (as a rule, the concentration staying in solution when a stock, usually in DMSO, is diluted into the medium) was determined as 44.8 µg/mL (≈ 146 µM). Under `CCS(=O)(=O)N1CCC(N2CCC(C)CC2)CC1.O=C(O)C(=O)O` stands 53.3 µg/mL; under `Cc1nn(-c2ccccc2)c(-c2ccccc2[N+](=O)[O-])c1C(=O)O`, more than 48.5 µg/mL.

Molecule `COc1cccc2c1CCc1c-2nc2ccccc2c1C(=O)O` had a kinetic solubility of more than 45.8 µg/mL. Next, `COC(=O)CS(=O)(=O)c1cc([N+](=O)[O-])ccc1NC(=O)OC`: 38.7 µg/mL (≈ 116 µM); `CC1(C)C2CCC1(CS(=O)(=O)N1CCCC1C(=O)O)C(=O)C2` (stereo not drawn): more than 49.4 µg/mL; `CN(C(=O)c1c[nH]c(=O)cc1C(F)(F)F)c1ccc(Cl)c(Cl)c1`: 40.8 µg/mL (≈ 112 µM). Next, `CSc1ccccc1C(=O)Nc1nc2ccccc2[nH]1`: 3.1 µg/mL (≈ 10.9 µM). Under `O=C(/C=C/c1ccco1)N(Cc1ccc(F)cc1)C1CCS(=O)(=O)C1` (stereo not drawn) stands more than 54.5 µg/mL; under `COc1ccccc1CCNC(=O)C1(C)CC1(Cl)Cl` (stereo not drawn), more than 45.3 µg/mL. Consider `CCc1ccc(NS(=O)(=O)c2ccc3c(c2)oc(=O)n3C)cc1`, for which the kinetic solubility is 2.1 µg/mL (≈ 6.32 µM). Under `CC(C)(C)c1ccc(C(CC(=O)O)NC(=O)Cc2ccccc2)cc1` (stereo not drawn) stands 49.3 µg/mL (≈ 145 µM). Next, `Cn1cccc1C(=O)NC1CCCCCC1`: more than 33 µg/mL. For `COC(=O)c1cc(C(=O)NCC2CCCCC2)cc([N+](=O)[O-])c1`, the kinetic solubility turned out to be 33.3 µg/mL (≈ 104 µM). Under `Cc1cccc(CC2S/C(=N/c3cccc(C)n3)NC2=O)c1` (stereo not drawn) stands 0.7 µg/mL (≈ 2.25 µM). `C=CCN1CC(C)/C(=N\O)CC1C` (stereo not drawn) registered a solubility (kinetic) of 26.4 µg/mL (≈ 145 µM). Against the preceding molecule, the solubility kinetic is about 38-fold higher. Next, `Cn1c(N)c(C(=O)c2ccc(Cl)c(S(=O)(=O)N3CCCCCC3)c2)c(=O)n(C)c1=O`: more than 68.2 µg/mL; `COc1ccc(C(=O)Nc2ccccc2C(=O)NCc2ccco2)cc1`: 2.1 µg/mL (≈ 5.99 µM); `C[C@@H](C(=O)NC1CCCC1)N1C(=O)N2CCc3c([nH]c4ccccc34)[C@@]2(C)C1=O`: 48.7 µg/mL (≈ 123 µM). Under `CCCc1cc(NCc2ccccn2)n2c(nc3ccccc32)c1C#N` stands less than 0.1 µg/mL; under `Cc1nccn1CCOc1ccccc1Cl`, 33.2 µg/mL (≈ 140 µM); under `NS(=O)(=O)c1ccc(Nc2c([N+](=O)[O-])cncc2[N+](=O)[O-])cc1`, 50.4 µg/mL (≈ 149 µM).

Regarding `CCN(CC)S(=O)(=O)N1CCC(C(=O)NCc2ccco2)CC1`, the solubility (kinetic) is more than 51.5 µg/mL. Next, `COc1cccc(-c2noc(CCCC(=O)N3CCOCC3)n2)c1`: more than 49.7 µg/mL; `O=C(CCc1ccc(S(=O)(=O)N2CCOCC2)cc1)OCC(=O)c1ccccc1`: 7.6 µg/mL (≈ 18.2 µM). Next, `CC(=O)c1c(C)n(Cc2ccccc2)c2ccc(O)cc12`: 0.7 µg/mL (≈ 2.51 µM). On to `COc1ccccc1NC(=O)CN1CCOCC1`, for which the solubility (kinetic) is more than 37.5 µg/mL.

In turn, `O=C(Nc1ccccc1)Nc1nc(-c2ccc(F)c(F)c2)cs1` registered a solubility (kinetic) of less than 0.2 µg/mL.

On to `CN(c1ccccc1)S(=O)(=O)c1cccc(C(=O)NC2CCCC2)c1`, for which the solubility (kinetic) was found to be 47.3 µg/mL (≈ 132 µM). Next, `Cc1ccc(C(=O)/C=C/N(C)C)cn1`: 26.6 µg/mL (≈ 140 µM); `COc1ccc(NC(=O)NCc2cccnc2)c(OC)c1`: more than 43.1 µg/mL. Molecule `Cc1ccc(N2CC(C(=O)Nc3cccnc3)CC2=O)cc1C` (stereo not drawn) displayed a kinetic solubility of 31.3 µg/mL (≈ 101 µM).

For `O=C1NCCN1CCNS(=O)(=O)c1ccc(F)c(Cl)c1`, the solubility (kinetic) is more than 48.3 µg/mL.

`N#Cc1c(-c2ccccc2Cl)c2c([nH]c1=O)-c1ccccc1OC2` showed a solubility (kinetic) of 11.6 µg/mL (≈ 34.7 µM). In turn, `COc1cc(/C=C/[N+](=O)[O-])ccc1OC(=O)/C=C/c1ccc(F)cc1` registered a solubility (kinetic) of less than 0.7 µg/mL. Next, `CCc1ccccc1NC(=O)c1cnn(-c2ccccc2)c1C`: more than 45.8 µg/mL; `CCCN(C(=O)Cc1coc2cc(OC)ccc12)C1CCS(=O)(=O)C1` (stereo not drawn): more than 54.8 µg/mL; `Cc1ccc(OCCC(=O)OCC(=O)Nc2ccccc2)cc1`: 16.5 µg/mL (≈ 52.7 µM).

`COc1ccccc1OCCn1c(=O)n(C)c2ccccc21`: the kinetic solubility came out at 42.2 µg/mL (≈ 141 µM). Next, `CC(C)NC(=O)COc1cccc2ccccc12`: 31.8 µg/mL (≈ 131 µM). `CCOC(=O)C1CCCN(CC(=O)Nc2cccc(C(C)=O)c2)C1` (stereo not drawn) yielded a solubility (kinetic) of 46 µg/mL (≈ 138 µM). The solubility kinetic values of the last two molecules are within 1.5-fold of each other.

With `Cc1ccccc1Nc1ncnc2c1cnn2C`, the solubility (kinetic) is more than 35.9 µg/mL. Next, `Cc1ccc(NC(=O)CN2C(=O)NC(C)(CC(C)C)C2=O)cc1F` (stereo not drawn): more than 50.3 µg/mL; `C=C(C)COc1ccc(-c2ncncc2-c2ccccc2OC)c(O)c1`: 5.5 µg/mL (≈ 15.8 µM); `O=C(COC(=O)c1ccc2c(c1)OCO2)NC1CCCCC1`: 18.4 µg/mL (≈ 60.3 µM).

In turn, `COc1ccc(CCNS(=O)(=O)c2cccc([N+](=O)[O-])c2)cc1` gave a solubility (kinetic) of 42.8 µg/mL (≈ 127 µM). Next, `CCN(c1ccccc1)S(=O)(=O)c1ccc(Cl)nc1`: 32 µg/mL (≈ 108 µM). Next, `COc1ccc(C(=O)O/N=C(\N)Cc2cccs2)cc1OC`: more than 48.1 µg/mL.

In turn, `Cl.NC(N)=NC(N)=NCCc1ccccc1` displayed a solubility (kinetic) of more than 36.3 µg/mL. Next, `O=S(=O)(c1ccccc1)N1CCN(CCO)CC1`: more than 40.6 µg/mL. For the molecule `CNc1nccc(-c2ccc(Cl)cc2)c1C#N`, the kinetic solubility came to 1.5 µg/mL (≈ 6.16 µM).

On to `Oc1cc2c(cc1CN1CCN(c3ccc(F)cc3)CC1)OCO2`, for which the kinetic solubility turned out to be 5.7 µg/mL (≈ 17.3 µM). This solubility kinetic is about 3.8-fold higher than that of the molecule before.

The molecule `O=C(NCc1ccc2c(c1)OCO2)c1cc(Cl)ccc1Cl` registered a kinetic solubility of 1.7 µg/mL (≈ 5.24 µM). Next, `NC(=O)c1cccnc1OCC(F)(F)F`: more than 33 µg/mL; `O=C(c1ccc(Oc2ccc(Cl)cc2)c([N+](=O)[O-])c1)N1CCCC1`: 41.1 µg/mL (≈ 119 µM); `O=C(COC(=O)c1cccc(F)c1)Nc1cccnc1Cl`: 41.7 µg/mL (≈ 135 µM). Under `O=C(COc1ccccc1C(=O)O)NC1CCCc2ccccc21` (stereo not drawn) stands 13.8 µg/mL (≈ 42.4 µM). Next, `COc1cccc(CC(=O)NCC2(N3CCCCC3)CCCCC2)c1`: more than 51.7 µg/mL. Molecule `O=C(O)C1CCCCC1C(=O)NC(c1ccccc1)c1ccccc1` (stereo not drawn) gave a solubility (kinetic) of 48.8 µg/mL (≈ 145 µM). Turning to `COc1ccccc1-c1nnc(SCC(=O)NC2CCCCC2)n1N`, the kinetic solubility was more than 54.2 µg/mL. `O=C(O)CN1C(=O)NC2(CCCc3ccccc32)C1=O` (stereo not drawn) gave a solubility (kinetic) of more than 41.1 µg/mL. Under `O=C(O)CNC(=O)/C=C/c1ccc(Cl)cc1Cl` stands 37.6 µg/mL (≈ 137 µM). The molecule `O=C(NCCc1c[nH]c2ccccc12)C(=O)NCC1CCCO1` (stereo not drawn) came in with a kinetic solubility of 9 µg/mL (≈ 28.5 µM). Under `Cc1c(Cl)cccc1NC(=O)CCN1CCN(C)CC1` stands more than 44.4 µg/mL; under `CCOc1ccc(N=C(C)C2=C(O)c3ccccc3C2=O)cc1`, less than 0.7 µg/mL. Under `Cc1ccc(CNC(=O)c2cccnc2)cc1` stands more than 33.9 µg/mL; under `COC(=O)c1cccc(NC(=S)Nc2ccccc2Cl)c1`, 41.4 µg/mL (≈ 129 µM); under `N#Cc1ccc(Cn2cc(C=O)c3ccccc32)cc1`, 4 µg/mL (≈ 15.4 µM).

The molecule `Cc1ccccc1OCc1nc2ccccc2n1C` displayed a kinetic solubility of 3.1 µg/mL (≈ 12.3 µM). Next, `COc1ccc(CCNc2ccc(S(N)(=O)=O)cn2)cc1`: 42.8 µg/mL (≈ 139 µM); `CC(C)(C)OC(=O)NC(CC(=O)OCc1ccccc1)C(=O)O` (stereo not drawn): more than 48.5 µg/mL; `Oc1c(C(c2ccccn2)N2CCOCC2)ccc2cccnc12` (stereo not drawn): 1.7 µg/mL (≈ 5.29 µM). Next, `CC(OC(=O)C1CC1C)C(=O)Nc1ccc(Cl)cn1` (stereo not drawn): 40.9 µg/mL (≈ 145 µM); `COc1ccc(-c2cc(-c3cccnc3)c(C#N)c(N)n2)cc1`: 0.6 µg/mL (≈ 1.98 µM). Next, `Fc1ccc(CNC(=S)NCc2cccc(Cl)c2)cc1`: 27.2 µg/mL (≈ 88.1 µM). As to `N#CCCN=C(NS(=O)(=O)c1ccccc1)c1ccccc1`, the kinetic solubility is more than 47 µg/mL.

`CCOc1nc(NCCO)nc(Nc2ccccc2F)n1` displayed a kinetic solubility of more than 44 µg/mL.

Consider `Cc1cccc(NC(=O)CSc2cccc3cccnc23)c1C`, for which the kinetic solubility turned out to be 3.7 µg/mL (≈ 11.5 µM). Next, `CCCCc1nc2ccc(S(=O)(=O)O)cc2[nH]1`: 31.4 µg/mL (≈ 123 µM). `O=C(Cn1c(=O)oc2ccccc21)Nc1ccc(F)cc1` gave a kinetic solubility of 21.8 µg/mL (≈ 76.2 µM). As for `c1ccc2sc(NC3=NCN(CC4CCCO4)CN3)nc2c1` (stereo not drawn), the solubility (kinetic) worked out at 42.1 µg/mL (≈ 133 µM).

In turn, `Cc1nn(CC(=O)c2ccc(Cl)s2)c(C)c1[N+](=O)[O-]` returned a solubility (kinetic) of more than 45 µg/mL. Next, `CC(=O)N1CCN(c2ccc(NC(=O)c3ccccc3C)cc2)CC1`: 36.8 µg/mL (≈ 109 µM).

`Cc1nn(-c2ccccc2)c2[nH]c(=O)cc(C(F)F)c12` displayed a solubility (kinetic) of more than 41.3 µg/mL. `Nc1nc(NCc2ccc(Cl)cc2)nc(NCCO)c1[N+](=O)[O-]` yielded a solubility (kinetic) of 45.9 µg/mL (≈ 135 µM). Next, `Cc1ccc(S(=O)(=O)N2CCNC(=O)C2)c(C)c1`: more than 40.2 µg/mL; `O=C1NC2(CCCC2)C(=O)N1Cc1cc(=O)n2ccsc2n1`: more than 47.8 µg/mL.

In turn, `S=c1[nH]cc(-c2ccccc2)[nH]1` had a kinetic solubility of more than 26.4 µg/mL. Under `CC1Cc2ccccc2N1C(=O)COC(=O)c1ccc([N+](=O)[O-])o1` (stereo not drawn) stands more than 49.5 µg/mL; under `O=C1CSC(=S)N1c1ccc(O)cc1`, 28.1 µg/mL (≈ 125 µM). As for `COc1cccc(OC)c1C(=O)Nc1sc2c(c1C(N)=O)CCCC2`, the kinetic solubility amounted to 25 µg/mL (≈ 69.4 µM).

In turn, `O=C(/C=C/c1cccc([N+](=O)[O-])c1)Nc1ccccn1` showed a kinetic solubility of 0.7 µg/mL (≈ 2.6 µM). Under `COc1ccc(C)cc1S(=O)(=O)NC1CCCCCC1` stands 4.8 µg/mL (≈ 16.1 µM); under `COc1ccc2cc(C(=O)N3CCN(c4ccccc4OC)CC3)[nH]c2c1`, 2.9 µg/mL (≈ 7.94 µM). Next, `Nc1cccc(CCc2ccncc2)c1`: more than 29.7 µg/mL; `C/C(=N\S(=O)(=O)c1ccc(C)cc1)N(C)C`: more than 36 µg/mL. Next, `CCOC(=O)N1CCN(C(=O)Nc2cccc3ccccc23)CC1`: more than 49.1 µg/mL; `Cc1nn(CC(=O)O)c(C)c1NC(=O)c1cccs1`: more than 41.9 µg/mL. Take `CSCCC(NS(=O)(=O)c1ccc(C)cc1C)C(=O)Nc1cccnc1` (stereo not drawn): the solubility (kinetic) is more than 59 µg/mL. Molecule `Cc1[nH]c2ccccc2c(=O)c1C(=O)/C=C/c1ccccc1` had a kinetic solubility of 35.8 µg/mL (≈ 124 µM).

The molecule `Cc1ccc(OCc2cc(C(=O)NC3CCCCC3)no2)cn1` yielded a solubility (kinetic) of 34 µg/mL (≈ 108 µM).

Take `COc1cc2c(cc1OC)C(c1ccccc1C(F)(F)F)CC(=O)N2` (stereo not drawn): the solubility (kinetic) is less than 0.8 µg/mL.

Regarding `CC(=O)N(C)c1ccc(NC(=S)NC(=O)/C=C/c2ccco2)cc1`, the solubility (kinetic) is 11.6 µg/mL (≈ 33.8 µM).
